Results as given in patent US10407445B2, “Hepatitis C virus inhibitors” (ENANTA PHARMACEUTICALS, INC., priority 2013, dated 2019).

Columns and labels:
Type in all cases: cell-based
Details in all cases: Hepatitis C virus
GT2a-3a-S52 replicon = assay: Stable replicon assay, comparison to daclatasvir, GT2a-3a-S52
Excerpt: (§1) The plasmid pSG-hRlucNeo-JFH1 was generated from pSG-Neo-JFH1 (Kato et al. 2003, Gastroentrology 125:1808-1817). A fragment containing the JFH-1 5′ NTR-hRluc-Neo gene and two unique restriction sites (AgeI and PmeI) was synthesized (Integrated DNA Technologies, Coralville, Iowa). The resulting plasmid was digested with AgeI and PmeI and the excised fragment (5′NTR-hRluc-Neo) was ligated into pSG-Neo-JFH1 digested with the same enzymes to generate pSG-hRlucNeo-JFH1. To allow expression of heterologous NS5A sequences, an NS5A shuttle vector was generated from pSG-Neo-JFH1, in which the entire coding sequence of NS5A plus the first eight codons of NS5B were replaced with an AfeI restriction site. This was done by Infusion cloning (Clontech, Mountain View, Calif.) from two PCR products that were generated using pSG-Neo-JFH1 as a template and the following primer pairs: […]
(§2) Stable HCV replicon cell lines were grown in complete media (Dulbecco's modified Eagle medium [DMEM], 2 mM L-glutamine, 0.1 mM essential amino acids, 1 mM sodium pyruvate, 10% fetal bovine serum) with the addition 500 μg/ml […] (G418). […] For stable and transient replicon assays, luciferase activity of compound-treated cells was measured relative to DMSO-treated cells after 72 h incubation using RENILLA-GLO™ Luciferase Assay (Promega). […]

GT2a-7a-QC69 replicon = assay: Stable replicon assay, comparison to daclatasvir, GT2a-7a-QC69
Excerpt: as §1, §2

[1] = system: HCV genotype 1a replicon, NS5A M28V Q30R; assay: Transient replication assay, GT1a NS5A M28V Q30R
GT2a-5a-SA13 replicon = assay: Stable replicon assay, comparison to daclatasvir, GT2a-5a-SA13
Excerpt: as §1, §2

[2] = system: HCV genotype 1a replicon, NS5A Q30E; assay: Transient replication assay, GT1a NS5A Q30E

| SMILES | EC50 (GT2a-3a-S52 replicon) [nM] | EC50 (GT2a-7a-QC69 replicon) [nM] | EC50 [1] [nM] | EC50 (GT2a-5a-SA13 replicon) [nM] | EC50 [2] [nM] |
| --- | --- | --- | --- | --- | --- |
| COC(=O)N[C@H](C(=O)N1C[C@]2(CCCOC2)C[C@H]1c1ncc(-c2ccc(-c3ccc4c(ccc5nc([C@@H]6C[C@@H]7CCC[C@@H]7N6C(=O)[C@@H](NC(=O)OC)C(C)C)[nH]c54)c3)cc2)[nH]1)C(C)C [Compound 16] | 0.54 | 0.02 | 0.16 | 0.005 | 0.74 |
| COC(=O)N[C@H](C(=O)N1CCC[C@H]1c1nc(-c2ccc(-c3ccc(-c4c[nH]c([C@@H]5CCCN5C(=O)[C@@H](NC(=O)OC)C(C)C)n4)cc3)cc2)c[nH]1)C(C)C [Daclatasvir, reference compound] | 0.39 | 0.016 | 1.2 | 0.009 | 81.5 |
